Measured values reported in ChEMBL document CHEMBL1201862, “PubChem BioAssay data set” (2004).
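Exposure lasted 48 hours, with cells grown in 96-well plates and compounds tested at five concentrations. Here, GI50 denotes the concentration required for 50% inhibition of growth.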 Active and inactive are the calls of the source. No stated cut-off is given here; in the data, active = GI50 up to about 1.1 µM and inactive = higher.

What was measured:
Assay in all cases: NCI-60 cell line screen, 48 h
OVCAR-4 = tested on: OVCAR-4
MOLT-4 = tested on: MOLT-4
SK-MEL-5 = tested on: SK-MEL-5
HCT-116 = tested on: HCT-116
A549 = tested on: A549
SR = tested on: SR
UO-31 = tested on: UO-31
BT-549 = tested on: BT-549
ACHN = tested on: ACHN
T47D = tested on: T47D
M14 = tested on: M14
RPMI-8226 = tested on: RPMI-8226
LOX IMVI = tested on: LOX IMVI
SF-539 = tested on: SF-539
HT-29 = tested on: HT-29
MCF7 = tested on: MCF7
K562 = tested on: K562
NCI-H460 = tested on: NCI-H460
SK-MEL-2 = tested on: SK-MEL-2

SMILES | GI50 (OVCAR-4) | GI50 (MOLT-4) | GI50 (SK-MEL-5) | GI50 (HCT-116) | GI50 (A549) | GI50 (SR) | GI50 (UO-31) | GI50 (BT-549) | GI50 (ACHN) | GI50 (T47D) | GI50 (M14) | GI50 (RPMI-8226) | GI50 (LOX IMVI) | GI50 (SF-539) | GI50 (HT-29) | GI50 (MCF7) | GI50 (K562) | GI50 (NCI-H460) | GI50 (SK-MEL-2)
O=C(CCSC(CC(=O)c1ccc(Cl)cc1)c1ccc(Cl)cc1)Nc1ccc(Cl)cc1 (centres undefined) | 14.7 µM (inactive) | 3.01 µM (inactive) | 15.9 µM (inactive) | 5.86 µM (inactive) | 14.6 µM (inactive) | 2.91 µM (inactive) | 14 µM (inactive) | 13.5 µM (inactive) | 14.4 µM (inactive) | 6.03 µM (inactive) | 14.4 µM (inactive) | 2.19 µM (inactive) | 5.83 µM (inactive) | 18.4 µM (inactive) | 9.23 µM (inactive) | 3.72 µM (inactive) | 4.06 µM (inactive) | 10.2 µM (inactive) | 15.5 µM (inactive)
Oc1ccc(-c2cc(-c3cc(-c4ccc(O)cc4)no3)on2)cc1 | > 100 µM (inactive) | 1.35 µM (inactive) | 36.9 µM (inactive) | 45.3 µM (inactive) | 50 µM (inactive) | 19.1 µM (inactive) | 10.8 µM (inactive) | 17.8 µM (inactive) | 2.81 µM (inactive) | 33.1 µM (inactive) | > 32.4 µM (inactive) | 3.52 µM (inactive) | 11.5 µM (inactive) | 4.13 µM (inactive) | > 100 µM (inactive) | 34.2 µM (inactive) | 1.75 µM (inactive) | 41.6 µM (inactive) | > 48 µM (inactive)
CN(C)c1ccc(/N=N\c2cccc3ncccc23)cc1 | > 100 µM (inactive) | 26.2 µM (inactive) | 20.4 µM (inactive) | 52.7 µM (inactive) | 63.7 µM (inactive) | 55 µM (inactive) | 8.53 µM (inactive) | 65.5 µM (inactive) | 35.6 µM (inactive) | 1.89 µM (inactive) | 61.7 µM (inactive) | 18.1 µM (inactive) | 53.2 µM (inactive) | > 100 µM (inactive) | 39 µM (inactive) | 0.063 µM (active) | 35.4 µM (inactive) | 26.6 µM (inactive) | > 100 µM (inactive)
Cc1cccc(/C=N/NC(=S)Nc2ccccc2)n1 | 6.31 µM (inactive) | 3.27 µM (inactive) | 3.08 µM (inactive) | 3.47 µM (inactive) | 5.61 µM (inactive) | 16.6 µM (inactive) | 3.43 µM (inactive) | 7.53 µM (inactive) | 2.6 µM (inactive) | 2.84 µM (inactive) | 2.49 µM (inactive) | 3.48 µM (inactive) | 2.67 µM (inactive) | 2.89 µM (inactive) | 3.17 µM (inactive) | 2.89 µM (inactive) | 4.1 µM (inactive) | 1.57 µM (inactive) | 3.2 µM (inactive)
COc1cc2c3c(n(Cc4ccccc4)c(=O)c2cc1OC)-c1ccccc1C3=O | > 100 µM (inactive) | 20.5 µM (inactive) | > 100 µM (inactive) | > 100 µM (inactive) | > 100 µM (inactive) | 4.1 µM (inactive) | > 100 µM (inactive) | > 100 µM (inactive) | > 100 µM (inactive) | > 100 µM (inactive) | > 100 µM (inactive) | > 100 µM (inactive) | > 100 µM (inactive) | 90.2 µM (inactive) | > 100 µM (inactive) | > 100 µM (inactive) | > 100 µM (inactive) | 26.7 µM (inactive) | > 100 µM (inactive)
Cc1ccc(CNNC(=O)c2cc[n+]([BH2-]C#N)cc2)cc1 | > 100 µM (inactive) | 71.3 µM (inactive) | > 100 µM (inactive) | > 100 µM (inactive) | 95.7 µM (inactive) | > 100 µM (inactive) | > 100 µM (inactive) | > 100 µM (inactive) | 11.3 µM (inactive) | > 100 µM (inactive) | > 100 µM (inactive) | > 100 µM (inactive) | > 100 µM (inactive) | > 100 µM (inactive) | > 100 µM (inactive) | 18.1 µM (inactive) | 49.2 µM (inactive) | > 100 µM (inactive) | > 100 µM (inactive)
